According to patent US7329757B2 (Bayer Aktiengesellschaft, priority 2000, dated 2008):

What was measured:
weeds [1] = assay: Pre-emergence test (Example A), damage to weeds; type: in vivo; conditions: soil sprayed 24 hours after sowing, rated after three weeks
Protocol: (§1) To produce a suitable preparation of active compound, 1 part by weight of active compound is mixed with the stated amount of solvent, the stated amount of emulsifier is added and the concentrate is diluted with water to the desired concentration.
Seeds of the test plants are sown in normal soil. After 24 hours, the soil is sprayed with the preparation of active compound such that the particular amount of active compound desired is applied per unit area. The concentration of active compound in the spray liquors is chosen so that the particular amount of active compound desired is applied in 1000 litres of water per hectare.
After three weeks, the degree of damage to the plants is rated in % damage in comparison to the development of the untreated control.

weeds [2] = assay: Post-emergence test (Example B), damage to weeds; type: in vivo; conditions: test plants of 5-15 cm sprayed, rated after three weeks
Protocol: as §1
Test plants of a height of 5-15 cm are sprayed with the preparation of active compound such that the particular amounts of active compound desired are applied per unit area. The concentration of the spray liquor is chosen so that the particular amounts of active compound desired are applied in 1000 l of water/ha.
After three weeks, the degree of damage to the plants is rated in % damage in comparison to the development of the untreated controls.

[3] = logP determination by HPLC on reversed-phase column (C 18), EEC Directive 79/831 Annex V.A8; type: physicochemical
Protocol: The calibration was carried out using unbranched alkan-2-ones (having 3 to 16 carbon atoms) with known logP values (determination of the logP values by the retention times using linear interpolation between two successive alkanones).

| Compound | activity against weeds (degree of damage) (weeds [1]) | melting point [°C] | also measured |
| --- | --- | --- | --- |
| Cc1cc/c(=N\C#N)n(-c2cccc(C(F)(F)F)c2)c1 [Example 3, 5-methyl-1-(3-trifluoromethyl-phenyl)-2(1H)-pyridinylidenecyanamide] | strong activity against weeds | 165 | activity against weeds (degree of damage) (weeds [2]): strong activity against weeds |
| Cc1ccc(=O)n(-c2cccc(C(F)(F)F)c2)c1 [IX-1, 5-methyl-1-(3-trifluoromethyl-phenyl)-2(1H)-pyridinone] | strong activity against weeds | 95 | activity against weeds (degree of damage) (weeds [2]): strong activity against weeds |
| Cc1cccn(-c2cccc(C(F)(F)F)c2)c1=O [IX-34, 3-methyl-1-(3-trifluoromethyl-phenyl)-2(1H)-pyridinone] | – | 122 | – |
| Cc1cc/c(=N\C(=O)C(F)(F)F)n(-c2cccc(C(F)(F)F)c2)c1 [Example 1, 2,2,2-trifluoro-N-[5-methyl-1-(3-trifluoromethylphenyl)-2(1H)-pyridinylidene]-acetamide] | strong activity against weeds | 115 | activity against weeds (degree of damage) (weeds [2]): strong activity against weeds |
| Cc1ccc(S(=O)(=O)/N=c2\ccc(C)cn2-c2cccc(C(F)(F)F)c2)cc1 [Example 7, 4-methyl-N-[5-methyl-1-(3-trifluoromethylphenyl)-2(1H)-pyridinylidene]-benzenesulphonamide] | – | 174 | – |
| O=c1ccc(C(F)(F)F)cn1-c1cccc(C(F)(F)F)c1 [IX-35, 5-trifluoromethyl-1-(3-trifluoromethyl-phenyl)-2(1H)-pyridinone] | – | – | chromatographic logP ([3]; reversed-phase HPLC column (C 18); labelled a): acidic range, 0.1% aqueous phosphoric acid/acetonitrile gradient, 43° C.): 2.78 |
| Cc1cc/c(=N\C2CC2)n(-c2cccc(C(F)(F)F)c2)c1 [Example 8, N-cyclopropyl-5-methyl-1-(3-trifluoromethylphenyl)-2(1H)-pyridineimine] | – | – | chromatographic logP ([3]; reversed-phase HPLC column (C 18), HPLC, range (acidic/neutral) not labelled): 1.51 |
| Cc1cc/c(=N\c2nnc(C(F)(F)F)s2)n(-c2cccc(C(F)(F)F)c2)c1 [Example 6, N-(5-trifluoromethyl-1,3,4-thiadiazol-2-yl)-5-methyl-1-(3-trifluoromethyl-phenyl)-2(1H)-pyridinimine] | – | 179 | – |
| 5-methyl-1-(2,3-difluoromethylenedioxy-phenyl)-2(1H)-pyridinone [IX-28] | – | – | logP [3]: 3.95 |
| Cc1ccc(=NS(=O)(=O)C(F)(F)F)n(-c2cccc(C(F)(F)F)c2)c1 [Example 5, N-[5-methyl-1-(3-trifluoromethyl-phenyl)-2(1H)-pyridinylidene]-trifluoromethanesulphonamide] | – | 206 | – |
| Cc1ccc(=NC(=O)OC(C)C)n(-c2cccc(C(F)(F)F)c2)c1 [Example 2] | strong activity against weeds | – | chromatographic logP ([3]; HPLC, range (acidic/neutral) not labelled): 1.59 |
| CNC(=O)/N=c1\ccc(C)cn1-c1cccc(C(F)(F)F)c1 [Example 4, N-methyl-N′-[5-methyl-1-(3-trifluoromethylphenyl)-2(1H)-pyridinylidene]-urea] | – | 114 | – |
